Literature values in patent US20250340675A1 (priority 2022, published 2025).

Columns and labels:
mice [1] = conditions: oral administration in mice
mice [2] = conditions: neurotoxic adverse effects; oral administration in mice
albino mice = conditions: mouse, in vivo
[3] = in vivo

## OCCCCO [1,4-Butanediol]
Mice [1]
  median lethal dose (LD50): 1,525 mg/kg
Mice [2]
  no observed adverse effect level (NOAEL): 100 mg/kg per day

## O=C(O)c1cc(O)c(O)c(O)c1 [gallic acid, 3,4,5-trihydroxy benzoic acid]
Albino mice
  LD50 (acute toxicity): greater than 2000 mg/kg

## Hyaluronic acid [HA]
[3]; human
  half-life: 24÷48 hours
[3]
  average turnover rate: 5 g/day
